The subject of one assay is ACHN-R xenograft tumor. Briefly: Xenograft tumor model in nude mice. The format is in vivo.
The subject of the next assay is 769-P cells. The assay can be described thus: 3D spheroid proliferation / cell survival rate assay. Type of assay: cell-based, human. The conditions noted are these: SITA alone, dose-response. The method, then:
(§1) ACHN and 769-P, which were human RCC cell lines, were acquired from the American Type Culture Collection (ATCC), and those authenticated by short tandem repeat (STR) analysis performed by BEX CO., LTD. were used. The ACHN and 769-P cells were cultured on a DEME medium and a PRMI medium (NACALI TESQUE, INC.), respectively, to both of which 10% of FBS, 100 U/mL of penicillin, and 100 μg/mL of streptomycin were added, using an incubator set at 37° C. and 5% CO2. The ACHN and 769-P cells were exposed to sunitinib (SUN) at 10 μM max., for 6 months or longer, to produce SUN resistant RCC cell lines, ACHN-R and 769-P-R, respectively.
(§2) A cell survival rate of the cells 3 days after the drug treatment and siRNA transfection was evaluated by CellTiter-Glo 3D Assay (Promega K.K.).
(§3) FIG. 4a depicts the results of ACHN-R and the parent cell line thereof. FIG. 4b depicts the results of 769-P-R and the parent cell line thereof. […] In FIGS. 4a to 4b, moreover, “ns” represents “no significant difference.”
(§4) FIGS. 4m to 4n are diagrams depicting the results studying how the DPP4 overexpression affects the cell survival rate of the RCC spheroids treated with SUN. ACHN cells (FIG. 4m) and 769-P cells (FIG. 4n), each stably expressing a control vector (vector #1 or #2) or DPP4 (DPP4 #1 or #2) were treated with SUN, and were analyzed by an ATP-based luciferase assay. […]

Another assay relates to ACHN cells. The description is as above. Type of assay: cell-based, human. As to conditions: SITA alone, dose-response. As to the method:
as §1, §2, §3, §4

Assay [1] has as its system IL6 mRNA. The assay can be described thus: IL6 mRNA level in 3D culture of ACHN-R cells (qRT-PCR). Type of assay: cell-based, human. As to conditions: SITA treatment versus vehicle, ACHN-R cells 3D culture. The method, then: (§5) Extraction of RNA, synthesis of cDNA, and quantitative reverse-transcription polymerase chain reaction (qRT-PCR) were carried out according to the methods disclosed in “[…], et al. ALDH1A1 in patient-derived bladder cancer spheroids activates retinoic acid signaling leading to TUBB3 overexpression and tumor progression. Int. J. Cancer 146, 1099-1113 (2019).” FIGS. 4k to 4l depict the results studying how SITA treatment affects the IL6 mRNA level in the 3D cultures of the ACHN-R cells (FIGS. 4k) and 769-P-R cells (FIG. 4l), which are both SUN resistant cells. […] In FIGS. 4k to 4l, moreover, “*” represents P<0.05.

The test system of a further assay is RCC-B spheroids. The assay can be described thus: Cell survival rate assay on spheroid culture (CellTiter-Glo 3D). Type of assay: cell-based, human. As to conditions: SITA (100 μM) in combination with SUN, third day.
Source text: (§6) After attaining the informed consent from the patients at Saitama Medical Center, Saitama Medical University, patient-derived cells (PDC) were produced from the tumors excised from the RCC patients. The tumor samples were processed with reference to the literature (Namekawa, T, et al. ALDH1A1 in patient-derived bladder cancer spheroids activates retinoic acid signaling leading to TUBB3 overexpression and tumor progression. Int. J. Cancer 146, 1099-1113 (2019)). The protocol of the research was approved by the Ethics Committee of Saitama Medical Center, Saitama Medical University (No. 1363-IV).
as §2
(§7) FIGS. 2b to 2c depict the results of treating the RCC-A spheroids and the RCC-B spheroids with SITA (100 μM) and SUN. The data was presented as the mean value ±SD of the relative luciferase activity as analyzed by an ATP-based luciferase assay. […] In FIGS. 2b to 2c, moreover, “*” represents P<0.05.
(§8) The production of the spheroid ATP in the RCC-A cells or RCC-B cells treated with SUN alone or a combination of SUN and SITA on the third day was measured with the luciferase activity using the CEllTiter-Glo. […]
(Cellular ATP, detected with luciferase, serves as a proxy for viable cell number.)

The next assay concerns RCC-A spheroids. The description is as above. Type of assay: cell-based, human. As to conditions: SITA (100 μM) in combination with SUN, third day.
Source text: as §6, §2, §7, §8

Another assay concerns ACHN-R cells. The assay can be described thus: 3D spheroid proliferation / cell survival rate assay. Type of assay: cell-based, human. The method, then: as §1, §2, §3
(§9) FIGS. 4c to 4f are diagrams depicting the results of studying the effect of the combination of SITA and SUN in the 3D culture of the ACHN cells (FIG. 4c), ACHN-R cells (FIG. 4d), 769-P cells (FIG. 4e), or 769-P-R cells (FIG. 4f). The concentration of SITA used was 100 μM. […] In FIGS. 4c, 4d, and 4f, moreover, […] represents P<0.05.
(§10) FIGS. 4g to 4j are diagrams depicting the results studying how the DPP4 knockdown by siRNA affects the therapeutic effects of SUN in the 3D culture of the ACHN cells (FIG. 4g), ACHN−R cells (FIG. 4h), 769-P cells (FIG. 4i), or 769-P-R cells (FIG. 4j). The data was represented as the means value±SD of the relative luciferase activity of each group of the spheroids, and n=3. […] In FIGS. 4h to 4j, moreover, “*” represents P<0.05.

The subject of the next assay is 769-P-R cells. The description is as above. The format is cell-based, human. As to the method:
as §1, §2, §3, §9, §10

The test system of assay [2] is IL6 mRNA. The assay can be described thus: IL6 mRNA level in 3D culture of 769-P-R cells (qRT-PCR). Type of assay: cell-based, human. As to conditions: SITA treatment versus vehicle, 769-P-R cells 3D culture. The method, then:
as §5

Setting [3] is: combination of SUN and SITA (100 μM).

Description for ACHN-R xenograft tumor: Male nude mice (BALB/c-nu/nu, 6 weeks old) were acquired from CLAIR Japan, Inc. The ACHN cells and the ACHN−R cells were each subjected to trypsinization, followed by washing with PBS. Then, 5×10^6 cells of the ACHN cells or the ACHN−R cells were dispersed in 150 μL of Matrigel (BD Biosciences), and were subcutaneously inoculated in each mouse. The size of the tumor was measured every day. The tumor volume (V) was determined by measuring the length (L) and the width (W), and inserting the measured values in the following equation.
When the volume of the engrafted tumor reached 180 mm^3, SUN (20 mg/kg) was orally administered to the mice inoculated with the ACHN cells, and SUN (20 mg/kg) alone or two drugs, SUN (20 mg/kg) and DPP4 inhibitor sitagliptin (SITA) (30 mg/kg), were orally administered to the randomly selected mice inoculated with the ACHN-R cells. […] The drug was administered in a cycle consisting of 2 consecutive days of administration, followed by 1 day of washout.
At the point when the volume of the ACHN or ACHN−R xenograft nude mouse tumor reached 180 mm^3, oral administration of SUN alone, or a combination of SUN and SITA was started.
The data was presented as the mean SD, and n=6. […] The tumor volume was estimated by measuring the size of the tumor with Vernier calipers. […] In FIGS. 6a and 6b, moreover, “k” represents P<0.05.
Ki67 immunohistochemical staining of the excised tumor of each group was carried out to determine a ratio of Ki67 positive cells (Ki67 index). […] The scale bar is 50 μm. […] In FIG. 6g, moreover, “*” represents P<0.05.
The expression level was evaluated by qRT-PCR. […] In FIGS. 6h to 6l, moreover, “*” represents P<0.05.

On to `N[C@@H](CC(=O)N1CCn2c(nnc2C(F)(F)F)C1)Cc1cc(F)c(F)cc1F` [SITA, sitagliptin], for which the “Ki67 index (ratio of Ki67 positive cells)” value with ACHN-R xenograft tumor (SITA and SUN in combination, ACHN-R xenograft tumor) was “reduced the Ki67 index”. In addition, the “sunitinib resistance of the RCC xenograft tumor” value in the assay with ACHN-R xenograft tumor (SITA in combination with SUN) is reported as “contributed to overturn the sunitinib resistance”. In addition, the “expression of IL6 (mRNA level) in tumor” value with ACHN-R xenograft tumor (SITA in combination with SUN, ACHN-R xenograft tumor) is on record as “expression of IL6 decreased”. The “proliferation of the tumor (tumor volume, tumor weight)” value in the assay with ACHN-R xenograft tumor (SUN (20 mg/kg) and SITA (30 mg/kg) orally in combination, ACHN-R xenograft, 13th day) is listed as “proliferation of the tumor was suppressed to the similar degree to the ACHN xenograft tumor”. Also, the spheroid proliferation entry is “did not affect the spheroid proliferation” in the assay with 769-P cells; “did not affect the spheroid proliferation” in the assay on ACHN cells; “did not affect the spheroid proliferation” in the assay on ACHN-R cells (SITA alone, dose-response); “suppressed the spheroid proliferation” with ACHN-R cells (setting [3]); “did not affect the spheroid proliferation” with 769-P-R cells (SITA alone, dose-response); “suppressed the spheroid proliferation” in the assay with 769-P-R cells (setting [3]). In addition, the “IL6 mRNA level” value with IL6 mRNA [1] and in the assay on IL6 mRNA [2] was “reduced the expression of mRNA of IL6” each time. Besides, the “proliferation inhibition effect owing to SUN (cell survival rate, relative luciferase activity)” value in the assay on RCC-B spheroids and in the assay on RCC-A spheroids was “proliferation inhibition effect owing to SUN was enhanced” in each case.

The record behind these values is patent US20240148736A1, “COMBINATION DRUG FOR TREATING RENAL CANCER AND POTENTIATOR FOR THERAPEUTIC EFFECTS OF TYROSINE KINASE INHIBITOR” (Saitama Medical University, priority 2020, published 2024).
